The record followed here is US12077503B2, “Substituted cyclic amides and their use as herbicides” (FMC CORPORATION, priority 2015, dated 2024).

What all share (assay type): in vivo
Experiment [1] concerns Kochia (Kochia scoparia). The experiment is described as follows: Test A preemergence. The following applies: Bassia scoparia, pre-emergence, 240 h; for pest or weed control at 125 g/ha: 125 g ai/ha, preemergence, visual rating after approx. 10 d, 0 to 100 scale where 0 is no effect and 100 is complete control, read-out: Plant response rating, Kochia; for pest or weed control at 500 g/ha: 500 g ai/ha, Preemergence, visual injury vs untreated controls after approximately 10 d, read-out: Kochia plant response rating (0 to 100 scale where 0 is no effect and 100 is complete control). The procedure, abridged: (§1)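 Visual injury, scored on a 0–100 scale relative to untreated controls, was recorded about 10 d after application. Treatments were a preemergence soil spray over planted seeds or a postemergence spray on plants at the one- to two-leaf stage, 2 to 10 cm tall, all in loam soil–sand blend in the greenhouse.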

The test system of experiment [2] is barnyardgrass (Echinochloa crus-galli). Kind of experiment: Test A preemergence. The following applies: Echinochloa crus-galli, pre-emergence, 240 h; for pest or weed control at 125 g/ha: 125 g ai/ha, preemergence, visual rating after approx. 10 d, 0 to 100 scale where 0 is no effect and 100 is complete control, read-out: Plant response rating, Barnyardgrass; for pest or weed control at 500 g/ha: 500 g ai/ha, Preemergence, visual injury vs untreated controls after approximately 10 d, read-out: Barnyardgrass plant response rating (0 to 100 scale where 0 is no effect and 100 is complete control). In short, it runs like this: as §1

Experiment [3] concerns giant foxtail (Setaria faberii). The experiment is described as follows: Test A preemergence. The settings on record: Setaria faberi, pre-emergence, 240 h; for pest or weed control at 125 g/ha: 125 g ai/ha, preemergence, visual rating after approx. 10 d, 0 to 100 scale where 0 is no effect and 100 is complete control, read-out: Plant response rating, Foxtail, Giant; for pest or weed control at 500 g/ha: 500 g ai/ha, Preemergence, visual injury vs untreated controls after approximately 10 d, read-out: Foxtail, Giant plant response rating (0 to 100 scale where 0 is no effect and 100 is complete control). The procedure, abridged: as §1

In experiment [4] the test system is pigweed (Amaranthus retroflexus). Kind of experiment: Test A preemergence. The settings on record: Amaranthus retroflexus, pre-emergence, 240 h; for pest or weed control at 125 g/ha: 125 g ai/ha, preemergence, visual rating after approx. 10 d, 0 to 100 scale where 0 is no effect and 100 is complete control, read-out: Plant response rating, Pigweed; for pest or weed control at 500 g/ha: 500 g ai/ha, Preemergence, visual injury vs untreated controls after approximately 10 d, read-out: Pigweed plant response rating (0 to 100 scale where 0 is no effect and 100 is complete control).

Experiment [5] has as its system ragweed (common ragweed, Ambrosia elatior). The experiment is described as follows: Test A preemergence. The following applies: Ambrosia artemisiifolia, pre-emergence, 240 h; for pest or weed control at 125 g/ha: 125 g ai/ha, preemergence, visual rating after approx. 10 d, 0 to 100 scale where 0 is no effect and 100 is complete control, read-out: Plant response rating, Ragweed; for pest or weed control at 500 g/ha: 500 g ai/ha, Preemergence, visual injury vs untreated controls after approximately 10 d, read-out: Ragweed plant response rating (0 to 100 scale where 0 is no effect and 100 is complete control). In short, it runs like this:
as §1

Experiment [6] relates to ryegrass, Italian (Italian ryegrass, Lolium multiflorum). The experiment is described as follows: Test A preemergence. The following applies: Lolium multiflorum, pre-emergence, 240 h; for pest or weed control at 125 g/ha: 125 g ai/ha, preemergence, visual rating after approx. 10 d, 0 to 100 scale where 0 is no effect and 100 is complete control, read-out: Plant response rating, Ryegrass, Italian; for pest or weed control at 500 g/ha: 500 g ai/ha, Preemergence, visual injury vs untreated controls after approximately 10 d, read-out: Ryegrass, Italian plant response rating (0 to 100 scale where 0 is no effect and 100 is complete control). The procedure, abridged:
as §1

The test system of experiment [7] is Galium (catchweed bedstraw, Galium aparine). The experiment is described as follows: Test A postemergence. The following applies: Galium, post-emergence, 240 h, 125 g ai/ha, postemergence; visual injury after approximately 10 d; 0 to 100 scale (0 no effect, 100 complete control); read-out: Plant response rating, Galium. In short, it runs like this: as §1
Experiment [8] has as its system Kochia (Kochia scoparia). The experiment is described as follows: Test A postemergence. The settings on record: Bassia scoparia, post-emergence, 240 h, 125 g ai/ha, postemergence; visual injury after approximately 10 d; 0 to 100 scale (0 no effect, 100 complete control); read-out: Plant response rating, Kochia. The procedure, abridged:
as §1

In experiment [9] the test system is barnyardgrass (Echinochloa crus-galli). The experiment is described as follows: Test A postemergence. The following applies: Echinochloa crus-galli, post-emergence, 240 h, 125 g ai/ha, postemergence; visual injury after approximately 10 d; 0 to 100 scale (0 no effect, 100 complete control); read-out: Plant response rating, Barnyardgrass. In short, it runs like this: as §1

The subject of experiment [10] is blackgrass (Alopecurus myosuroides). The experiment is described as follows: Test A postemergence. The settings on record: Alopecurus myosuroides, post-emergence, 240 h, 125 g ai/ha, postemergence; visual injury after approximately 10 d; 0 to 100 scale (0 no effect, 100 complete control); read-out: Plant response rating, Blackgrass. The procedure, abridged:
as §1

The subject of the next experiment is corn (Zea mays). The experiment is described as follows: Test A postemergence. The settings on record: Zea mays, post-emergence, 240 h, 125 g ai/ha, postemergence; visual injury after approximately 10 d; 0 to 100 scale (0 no effect, 100 complete control). The procedure, abridged:
as §1

The subject of experiment [11] is giant foxtail (Setaria faberii). Kind of experiment: Test A postemergence. The following applies: Setaria faberi, post-emergence, 240 h, 125 g ai/ha, postemergence; visual injury after approximately 10 d; 0 to 100 scale (0 no effect, 100 complete control); read-out: Plant response rating, Foxtail, Giant. In short, it runs like this: as §1
Experiment [12] has as its system pigweed (Amaranthus retroflexus). Kind of experiment: Test A postemergence. The settings on record: Amaranthus retroflexus, post-emergence, 240 h, 125 g ai/ha, postemergence; visual injury after approximately 10 d; 0 to 100 scale (0 no effect, 100 complete control); read-out: Plant response rating, Pigweed. The procedure, abridged:
as §1

Experiment [13] deals with ragweed (common ragweed, Ambrosia elatior). The experiment is described as follows: Test A postemergence. The following applies: Ambrosia artemisiifolia, post-emergence, 240 h, 125 g ai/ha, postemergence; visual injury after approximately 10 d; 0 to 100 scale (0 no effect, 100 complete control); read-out: Plant response rating, Ragweed. In short, it runs like this:
as §1

Experiment [14] concerns ryegrass, Italian (Italian ryegrass, Lolium multiflorum). Kind of experiment: Test A postemergence. The settings on record: Lolium multiflorum, post-emergence, 240 h, 125 g ai/ha, postemergence; visual injury after approximately 10 d; 0 to 100 scale (0 no effect, 100 complete control); read-out: Plant response rating, Ryegrass, Italian. The procedure, abridged:
as §1

For the molecule `CN1C[C@H](c2ccc(C#N)cc2)[C@@H](C(=O)Nc2cccc(F)c2F)C1=O` (racemic) [Compound 775], the pest or weed control at 125 g/ha with Kochia (Kochia scoparia) [1] was 30%; in [2] it was 60%; in [3], 80%; in experiment [4], 30%; in [5], 50%; in [6], 0%. The pest or weed control at 125 g/ha in experiment [7] worked out at 40%; with Kochia (Kochia scoparia) [8], 40%; in [9], 50%; in [10] it was 0%; in experiment [11], 60%; in experiment [12] it was 0%. The pest or weed control at 125 g/ha in experiment [13] and in experiment [14] was 20% each time. In addition, the pest or weed control at 500 g/ha with Kochia (Kochia scoparia) [1] turned out to be 80%; in [2] it was 100%; in experiment [3], 100%; in experiment [4], 70%; in [5], 80%; in experiment [6], 0%. The Corn plant response rating (crop injury, 0 = no effect, 100 = complete kill) at 125 g/ha in the experiment with corn (Zea mays) was 20%.

As for `CN1C[C@H](c2cccc(S(C)(=O)=O)c2)[C@@H](C(=O)Nc2cccc(F)c2F)C1=O` (racemic) [Compound 777], the pest or weed control at 125 g/ha in the experiment on Kochia (Kochia scoparia) [1] was 0%; in experiment [2] it was 70%; in experiment [3] it was 80%; in experiment [4], 0%; in [5], 0%; in [6], 40%. Also, the pest or weed control at 125 g/ha in experiment [7] was determined as 0%; in the experiment on Kochia (Kochia scoparia) [8], 0%; in experiment [9], 70%; in experiment [10], 0%; in experiment [11], 30%; in experiment [12], 0%. The pest or weed control at 125 g/ha in experiment [13] and in experiment [14] was 0% throughout. Also, the pest or weed control at 500 g/ha in the experiment on Kochia (Kochia scoparia) [1] stood at 0%; in experiment [2], 100%; in experiment [3], 100%; in experiment [4], 40%; in experiment [5] it was 0%; in [6], 70%. In the experiment on corn (Zea mays), the Corn plant response rating (crop injury, 0 = no effect, 100 = complete kill) at 125 g/ha was determined as 40%.
